Among the data in ChEMBL document CHEMBL1148052, “Cylindrene, a novel sesquiterpenoid from Imperata cylindrica with inhibitory activity on contractions of vascular smooth muscle” (1994) are Activity and inhibition values, retold here.

The source made the active and inactive calls. No cut-off for these calls is given here.

By inhibition is commonly meant how much of the control response was suppressed.

The test system of test [1] is Aorta. Nature of the test: Inhibition of KCl-induced contraction in rabbit aorta at 100 nM. As to conditions: Oryctolagus cuniculus. It counts as functional, tissue-based.
For test [2], the system named is Aorta. Nature of the test: Inhibition of KCl-induced contraction in rabbit aorta at 300 uM. It counts as functional. As to conditions: Oryctolagus cuniculus.

Take `NC[C@H](O)c1ccc(O)c(O)c1`: in the test on Aorta [1], the result was inactive.

On to `CC(=O)c1cc(C(C)C)c2c(c1)C(C)(O)CC2` (configuration not stated) [CYLINDRENE], for which the inhibition at 300 µM in the test on Aorta [2] was 40%.
